Converted amounts (≈) assume the structure as drawn. “And” between values parts separate entries of the source, which are not always exact repeats. Equal entries are not always repeated.
How the values were obtained:
Type in all cases: functional
Candida [1] = assay: 90% inhibitory activity against the Candida. species (40 clinical isolates) was determined at pH-7.2
Candida [2] = assay: Inhibitory activity against Candida. species (40 clinical isolates), determined at pH-5.8
Candida [3] = assay: Inhibitory activity against the Candida. species. (40 clinical isolates) was determined at pH-7.2
Candida [4] = assay: The compound was tested for percent resistance against all Candida. species (40 clinical isolates) at 256 ug/mL (pH=7.2), activity is expressed as R%.
Candida albicans [5] = assay: Inhibitory activity against Candida albicans (40 clinical isolates), determined at pH-7.2
Candida albicans [6] = assay: Inhibitory activity against the Candida albicans (40 clinical isolates), determined at pH-5.8
Candida [7] = assay: Inhibitory activity against Candida. species. (40 clinical isolates), determined at pH-5.8
Candida [8] = assay: The compound was tested for percent resistance against all Candida. species (40 clinical isolates) at 256 ug/mL (pH=5.8), activity is expressed as R%.
Candida albicans [9] = assay: Inhibitory activity against the Candida albicans (40 clinical isolates), determined at pH-7.2
Candida albicans [10] = assay: 50% inhibitory activity against Candida albicans (40 clinical isolates) determined at pH-7.2; conditions: Candida albicans; read-out: MIC50
Candida albicans [11] = assay: Percent resistance against Candida albicans (40 clinical isolates) at 256 micro g/mL (pH=5.8), activity is expressed as R%.
Candida albicans [12] = assay: Inhibitory activity against Candida albicans (40 clinical isolates), determined at pH-5.8
Candida [13] = assay: 50% inhibitory activity against the Candida. species (40 clinical isolates) was determined at pH-7.2
Candida albicans [14] = assay: 50% inhibitory activity against Candida albicans (40 clinical isolates) determined at pH-5.8
Candida albicans [15] = assay: Resistance against Candida. albicans (40 clinical isolates) at 256 ug/mL (pH=7.2), activity is expressed as R%.
Oryctolagus cuniculus [16] = assay: Topical comparison with bifonazole in white male rabbits by treatment twice daily on 15 consecutive days starting 48 hr after inoculation.
Oryctolagus cuniculus [17] = assay: Topical comparison with bifonazole in white male rabbits at 1% concentration of compound
Candida [18] = assay: Resistance against all Candida. species (40 clinical isolates) at 256 micro g/mL (pH=5.8). Activity is expressed as R%.
Candida [19] = assay: Percent resistance against all Candida. species (40 clinical isolates) at 256 micro g/mL (pH=7.2), activity is expressed as R%.
Candida [20] = assay: 90% inhibitory activity against Candida. species (40 clinical isolates) determined at pH-7.2
Candida [21] = assay: Inhibitory activity against Candida. species. (40 clinical isolates), determined at pH-7.2
Candida [22] = assay: The compound was tested for percent resistance against all Candida. species (40 clinical isolates) at 256 micro g/mL (pH=5.8), activity is expressed as R%.
Candida albicans [23] = assay: The compound was tested for percent resistance against Candida. albicans (40 clinical isolates) at 256 micro g/mL (pH=7.2), activity is expressed as R%.

| Structure (SMILES) | MIC90 (Candida [1]) [µg/mL] | MIC50 (Candida [2]) [µg/mL] | MIC90 (Candida [2]) [µg/mL] | MIC (Candida albicans [5]) [µg/mL] | MIC90 (Candida albicans [6]) [µg/mL] | MIC (Candida [7]) [µg/mL] | MIC90 (Candida albicans [9]) [µg/mL] | MIC50 (Candida albicans [10]) [µg/mL] | R (Candida albicans [11]) [%] | MIC (Candida albicans [12]) [µg/mL] | MIC50 (Candida [13]) [µg/mL] | MIC50 (Candida albicans [14]) [µg/mL] | R (Candida albicans [15]) [%] | R (Candida [19]) [%] | MIC (Candida [21]) [µg/mL] | further results |
| --- | --- | --- | --- | --- | --- | --- | --- | --- | --- | --- | --- | --- | --- | --- | --- | --- |
| c1ccc(-c2c[nH]cc2C(c2ccccc2)n2ccnc2)cc1 (stereo not given) | > 256 | 128 (≈ 428 µM) | 128 (≈ 428 µM) | > 35.4 | 128 (≈ 428 µM) | 88 (≈ 294 µM) | 64 (≈ 214 µM) | 32 (≈ 107 µM) | 0 | 53.9 (≈ 180 µM) | > 256 | 32 (≈ 107 µM) | 2.7 |  |  | MIC (Candida [3]): > 396 µg/mL; R (Candida [4]): 75%; R (Candida [8]): 0% |
| Clc1ccc(-c2c[nH]cc2C(c2ccccc2)n2ccnc2)cc1 (stereo not given) |  | 32 (≈ 95.9 µM) | 32 (≈ 95.9 µM) | 6.4 (≈ 19.2 µM) | 32 (≈ 95.9 µM) | 44.4 (≈ 133 µM) | 16 (≈ 47.9 µM) | 2 (≈ 5.99 µM) | 0 | 12.8 (≈ 38.3 µM) | 32 (≈ 95.9 µM) | 16 (≈ 47.9 µM) | 0 | 0 | 46.5 (≈ 139 µM) | No. of animals (Oryctolagus cuniculus [16]): 33%; Percentage of animals (Oryctolagus cuniculus [17]): 50% and 83%; R (Candida [18]): 0%; MIC90 (Candida [20]): 128 µg/mL (≈ 383 µM) |
| CC(=O)N1CCN(c2ccc(OC[C@H]3CO[C@](Cn4ccnc4)(c4ccc(Cl)cc4Cl)O3)cc2)CC1 [KETOCONAZOLE] | 32 (≈ 60.2 µM) | 4 (≈ 7.53 µM) | 32 (≈ 60.2 µM) | 8.3 (≈ 15.6 µM) | 32 (≈ 60.2 µM) | 16.9 (≈ 31.8 µM) | 32 (≈ 60.2 µM) | 2 (≈ 3.76 µM) | 0 | 8.6 (≈ 16.2 µM) | 4 (≈ 7.53 µM) | 0.5 (≈ 0.941 µM) |  | 0 | 8.1 (≈ 15.2 µM) | Fungicidal (Candida [22]): 0%; R (Candida albicans [23]): 0% |

— ChEMBL document CHEMBL1128323, “Antifungal agents. 9. 3-Aryl-4-[alpha-(1H-imidazol-1-yl)arylmethyl]pyrroles: a new class of potent anti-Candida agents” (1995)
